Measured values taken from ChEMBL document CHEMBL3400114, “The design, synthesis and biological evaluation of conformationally restricted 4-substituted-2,6-dimethylfuro[2,3-d]pyrimidines as multi-targeted receptor tyrosine kinase and microtubule inhibitors as potential antitumor agents” (Bioorg Med Chem, 2015).

Columns and labels:
A-431 = experiment: Antiproliferative activity against human A431 cells after 48 hrs by sulforhodamine B assay; assay type: functional, cell-based; settings: A-431, 48 h
MDA-MB-435 [1] = experiment: Antiproliferative activity against human MDA-MB-435 cells after 48 hrs by sulforhodamine B assay; assay type: functional, cell-based; settings: MDA-MB-435, 48 h
U-251 = experiment: Growth inhibition of human U251 cells after 48 hrs by sulforhodamine B assay; assay type: functional; settings: U-251, 48 h
SK-MEL-2 = experiment: Growth inhibition of human SK-MEL-2 cells after 48 hrs by sulforhodamine B assay; assay type: functional; settings: SK-MEL-2, 48 h
[2] = Growth inhibition of human SF295 cells after 48 hrs by sulforhodamine B assay; assay type: functional; settings: SF-295, 48 h
[3] = Growth inhibition of human OVCAR3 cells after 48 hrs by sulforhodamine B assay; assay type: functional; settings: OVCAR-3, 48 h
[4] = Growth inhibition of human UO31 cells after 48 hrs by sulforhodamine B assay; assay type: functional; settings: UO-31, 48 h
DU-145 = experiment: Growth inhibition of human DU145 cells after 48 hrs by sulforhodamine B assay; assay type: functional; settings: DU-145, 48 h
SK-OV-3 = experiment: Growth inhibition of human SKOV3 cells after 48 hrs by sulforhodamine B assay; assay type: functional; settings: SK-OV-3, 48 h
Tubulin (Bos taurus) = Tubulin (Bos taurus) (UniProt Q6B856+Q862L2+Q862F3); experiment: Displacement of [3H]colchicine from bovine brain tubulin assembly at 5 uM
[5] = Growth inhibition of human PC3 cells after 48 hrs by sulforhodamine B assay; assay type: functional; settings: PC-3, 48 h
[6] = Induction of microtubule depolymerization in rat A10 cells after 18 hrs by indirect immunofluorescence assay; assay type: cell-based
[7] = Growth inhibition of human HCT15 cells after 48 hrs by sulforhodamine B assay; assay type: functional; settings: HCT-15, 48 h
[8] = Growth inhibition of human OVCAR5 cells after 48 hrs by sulforhodamine B assay; assay type: functional; settings: OVCAR-5, 48 h
[9] = Growth inhibition of human HCT116 cells after 48 hrs by sulforhodamine B assay; assay type: functional; settings: HCT-116, 48 h
A549 = experiment: Growth inhibition of human A549 cells after 48 hrs by sulforhodamine B assay; assay type: functional; settings: A549, 48 h
HeLa [10] = experiment: Antiproliferative activity against human HeLa cells after 48 hrs by sulforhodamine B assay; assay type: functional, cell-based
MCF7 = experiment: Growth inhibition of human MCF7 cells after 48 hrs by sulforhodamine B assay; assay type: functional; settings: MCF7, 48 h
SN12C = experiment: Growth inhibition of human SN12C cells after 48 hrs by sulforhodamine B assay; assay type: functional
NCI-H322M = experiment: Growth inhibition of human NCI-H322M cells after 48 hrs by sulforhodamine B assay; assay type: functional
[11] = Growth inhibition of human MOLT4 cells after 48 hrs by sulforhodamine B assay; assay type: functional; settings: MOLT-4, 48 h
CAKI-1 = experiment: Growth inhibition of human Caki1 cells after 48 hrs by sulforhodamine B assay; assay type: functional; settings: CAKI-1, 48 h
[12] = Growth inhibition of human […] cells after 48 hrs by sulforhodamine B assay; assay type: functional
HL-60(TB) = experiment: Growth inhibition of human HL-60(TB) cells after 48 hrs by sulforhodamine B assay; assay type: functional; settings: HL-60, 48 h
A498 = experiment: Growth inhibition of human A498 cells after 48 hrs by sulforhodamine B assay; assay type: functional; settings: A498, 48 h
KM12 = experiment: Growth inhibition of human KM12 cells after 48 hrs by sulforhodamine B assay; assay type: functional; settings: KM12, 48 h
M14 = experiment: Growth inhibition of human M14 cells after 48 hrs by sulforhodamine B assay; assay type: functional; settings: M14, 48 h
[13] = Antiproliferative activity against human SKOV3 cells overexpressing wild type beta3 tubulin after 48 hrs by sulforhodamine B assay; assay type: functional, cell-based; settings: SK-OV-3, 48 h
NCI-H460 = experiment: Growth inhibition of human NCI-H460 cells after 48 hrs by sulforhodamine B assay; assay type: functional; settings: NCI-H460, 48 h
HeLa [14] = experiment: Antiproliferative activity against human HeLa cells overexpressing wild type beta3 tubulin after 48 hrs by sulforhodamine B assay; assay type: functional, cell-based
[15] = Growth inhibition of human HOP92 cells after 48 hrs by sulforhodamine B assay; assay type: functional; settings: HOP-92, 48 h
[16] = Growth inhibition of human Hs 578T cells after 48 hrs by sulforhodamine B assay; assay type: functional
SK-MEL-28 = experiment: Growth inhibition of human SK-MEL-28 cells after 48 hrs by sulforhodamine B assay; assay type: functional; settings: SK-MEL-28, 48 h
MDA-MB-435 [17] = experiment: Growth inhibition of human MDA-MB-435 cells after 48 hrs by sulforhodamine B assay; assay type: functional; settings: MDA-MB-435, 48 h
CCRF-CEM = experiment: Growth inhibition of human CCRF-CEM cells after 48 hrs by sulforhodamine B assay; assay type: functional
HT-29 = experiment: Growth inhibition of human HT-29 cells after 48 hrs by sulforhodamine B assay; assay type: functional; settings: HT-29, 48 h
NCI-H522 = experiment: Growth inhibition of human NCI-H522 cells after 48 hrs by sulforhodamine B assay; assay type: functional; settings: NCI-H522, 48 h
K562 = experiment: Growth inhibition of human K562 cells after 48 hrs by sulforhodamine B assay; assay type: functional; settings: K562, 48 h
MDA-MB-231 = experiment: Growth inhibition of human MDA-MB-231 cells after 48 hrs by sulforhodamine B assay; assay type: functional; settings: MDA-MB-231, 48 h
ACHN = experiment: Growth inhibition of human ACHN cells after 48 hrs by sulforhodamine B assay; assay type: functional
[18] = Growth inhibition of human COLO205 cells after 48 hrs by sulforhodamine B assay; assay type: functional; settings: COLO 205, 48 h
NCI/ADR-RES = experiment: Growth inhibition of human NCI/ADR-RES cells after 48 hrs by sulforhodamine B assay; assay type: functional
SF-268 = experiment: Growth inhibition of human SF268 cells after 48 hrs by sulforhodamine B assay; assay type: functional; settings: SF-268, 48 h
NCI-H226 = experiment: Growth inhibition of human NCI-H226 cells after 48 hrs by sulforhodamine B assay; assay type: functional; settings: NCI-H226, 48 h
[19] = Growth inhibition of human OVCAR4 cells after 48 hrs by sulforhodamine B assay; assay type: functional; settings: OVCAR-4, 48 h
[20] = Growth inhibition of human SF539 cells after 48 hrs by sulforhodamine B assay; assay type: functional; settings: SF-539, 48 h
TK-10 = experiment: Growth inhibition of human TK10 cells after 48 hrs by sulforhodamine B assay; assay type: functional; settings: TK-10, 48 h
SW-620 = experiment: Growth inhibition of human SW620 cells after 48 hrs by sulforhodamine B assay; assay type: functional; settings: SW-620, 48 h
[21] = Growth inhibition of human HCC2998 cells after 48 hrs by sulforhodamine B assay; assay type: functional; settings: HCC 2998, 48 h
[22] = Growth inhibition of human LOXIMVI cells after 48 hrs by sulforhodamine B assay; assay type: functional; settings: LOX IMVI
[23] = Growth inhibition of human EKVX cells after 48 hrs by sulforhodamine B assay; assay type: functional
SK-MEL-5 = experiment: Growth inhibition of human SK-MEL-5 cells after 48 hrs by sulforhodamine B assay; assay type: functional; settings: SK-MEL-5, 48 h

COc1ccc2c(c1)CCCN2c1nc(C)nc2oc(C)cc12
IC50 (A-431): 18 nM
IC50 (MDA-MB-435 [1]): 9.8 nM
GI50 (U-251): < 10 nM
GI50 (SK-MEL-2): < 10 nM
GI50 [2]: < 10 nM
GI50 [3]: < 10 nM
GI50 [4]: < 10 nM
GI50 (DU-145): < 10 nM
GI50 (SK-OV-3): < 10 nM
inhibition (Tubulin (Bos taurus)): 96%
GI50 [5]: < 10 nM
EC50 [6]: 21 nM
GI50 [7]: < 10 nM
GI50 [8]: 43 nM
GI50 [9]: < 10 nM
GI50 (A549): < 10 nM
IC50 (HeLa [10]): 13.5 nM
GI50 (MCF7): < 10 nM
GI50 (SN12C): < 10 nM
GI50 (NCI-H322M): < 10 nM
GI50 [11]: 15 nM
GI50 (CAKI-1): < 10 nM
GI50 [12]: < 10 nM
GI50 (HL-60(TB)): < 10 nM
GI50 (A498): < 10 nM
GI50 (KM12): < 10 nM
GI50 (M14): < 10 nM
IC50 [13]: 12.9 nM
GI50 (NCI-H460): < 10 nM
IC50 (HeLa [14]): 9.1 nM
GI50 [15]: 58.6 nM
GI50 [16]: < 10 nM
GI50 (SK-MEL-28): < 10 nM
GI50 (MDA-MB-435 [17]): < 10 nM
GI50 (CCRF-CEM): < 10 nM
GI50 (HT-29): < 10 nM
GI50 (NCI-H522): < 10 nM
GI50 (K562): < 10 nM
GI50 (MDA-MB-231): 11.4 nM
GI50 (ACHN): < 10 nM
GI50 [18]: < 10 nM
GI50 (NCI/ADR-RES): < 10 nM
GI50 (SF-268): 16.8 nM
GI50 (NCI-H226): 13 nM
GI50 [19]: 51 nM
GI50 [20]: < 10 nM
GI50 (TK-10): < 10 nM
GI50 (SW-620): < 10 nM
GI50 [21]: 12 nM
GI50 [22]: < 10 nM
GI50 [23]: < 10 nM
GI50 (SK-MEL-5): < 10 nM
